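Test compounds were applied to cells in 96-well plates for 48 hours at 5 doses. GI50 marks 50% less growth.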 The source made the active and inactive calls. No stated cut-off is given here; in the data, active = GI50 up to about 1.1 µM and inactive = higher. Residues, ends and D or L forms follow the SMILES beside them. *: point of attachment. Cbz = O=C(OCc1ccccc1)*
Tests used:
Test in all cases: NCI-60 cell line screen, 48 h
RXF 393 = test system: RXF 393
SN12C = test system: SN12C
SF-268 = test system: SF-268
LOX IMVI = test system: LOX IMVI
M14 = test system: M14
SK-MEL-2 = test system: SK-MEL-2
HCT-116 = test system: HCT-116
SR = test system: SR
Hs-578T = test system: Hs-578T
HT-29 = test system: HT-29
UACC-257 = test system: UACC-257
NCI-H23 = test system: NCI-H23
SNB-75 = test system: SNB-75
UO-31 = test system: UO-31
NCI-H226 = test system: NCI-H226
A498 = test system: A498
OVCAR-3 = test system: OVCAR-3
UACC-62 = test system: UACC-62
OVCAR-4 = test system: OVCAR-4
NCI-H522 = test system: NCI-H522

SMILES | GI50 (RXF 393) | GI50 (SN12C) | GI50 (SF-268) | GI50 (LOX IMVI) | GI50 (M14) | GI50 (SK-MEL-2) | GI50 (HCT-116) | GI50 (SR) | GI50 (Hs-578T) | GI50 (HT-29) | GI50 (UACC-257) | GI50 (NCI-H23) | GI50 (SNB-75) | GI50 (UO-31) | GI50 (NCI-H226) | GI50 (A498) | GI50 (OVCAR-3) | GI50 (UACC-62) | GI50 (OVCAR-4) | GI50 (NCI-H522)
CCOC(=O)C(NC(=O)CC)(Nc1cc(C)on1)C(F)(F)F (stereo not given) | > 100 µM (inactive) | > 100 µM (inactive) | > 100 µM (inactive) | > 100 µM (inactive) | > 100 µM (inactive) | > 100 µM (inactive) | > 100 µM (inactive) | > 100 µM (inactive) | > 100 µM (inactive) | > 100 µM (inactive) | > 100 µM (inactive) | > 100 µM (inactive) | > 100 µM (inactive) | > 100 µM (inactive) | – | – | – | – | – | –
CC1C2(C)OC(=N)C(C#N)(C(C)O2)C1(C#N)C#N (stereo not given) | 18.2 µM (inactive) | 16.3 µM (inactive) | 30.8 µM (inactive) | 19.5 µM (inactive) | 18.3 µM (inactive) | 19.9 µM (inactive) | 24.4 µM (inactive) | – | 29.4 µM (inactive) | 28.2 µM (inactive) | 20.2 µM (inactive) | 28.8 µM (inactive) | > 100 µM (inactive) | 42.9 µM (inactive) | > 100 µM (inactive) | 87.7 µM (inactive) | 24.5 µM (inactive) | 19.8 µM (inactive) | – | –
COC(=O)c1ccc2c(c1)S/C(=C/c1ccc3ccc4cccc5ccc1c3c45)S2 | 50.4 µM (inactive) | > 100 µM (inactive) | 32.1 µM (inactive) | > 100 µM (inactive) | 32.1 µM (inactive) | > 100 µM (inactive) | 95.9 µM (inactive) | – | 37.9 µM (inactive) | > 100 µM (inactive) | > 100 µM (inactive) | 19 µM (inactive) | 17.3 µM (inactive) | > 100 µM (inactive) | > 100 µM (inactive) | 31.6 µM (inactive) | 23.2 µM (inactive) | 22.9 µM (inactive) | 41.4 µM (inactive) | 21 µM (inactive)
COc1ccc2oc(=O)c(-c3csc(C)n3)cc2c1 | 30.5 µM (inactive) | > 100 µM (inactive) | 21.6 µM (inactive) | > 100 µM (inactive) | 75.2 µM (inactive) | 41.4 µM (inactive) | 58.3 µM (inactive) | > 100 µM (inactive) | 30.7 µM (inactive) | > 100 µM (inactive) | > 100 µM (inactive) | – | 30.5 µM (inactive) | 69.2 µM (inactive) | 29.2 µM (inactive) | – | – | 22.9 µM (inactive) | 85.3 µM (inactive) | –
COc1ccc(/C=C2/CCS(=O)(=O)c3ccc(C)cc3C2=O)cc1OC | 12.9 µM (inactive) | 13.2 µM (inactive) | 20.5 µM (inactive) | 8.11 µM (inactive) | 17.2 µM (inactive) | 20 µM (inactive) | 10.2 µM (inactive) | 20.6 µM (inactive) | 11.5 µM (inactive) | 13.9 µM (inactive) | 11.9 µM (inactive) | 12.5 µM (inactive) | 12 µM (inactive) | 7.48 µM (inactive) | 14.3 µM (inactive) | – | 28.1 µM (inactive) | 5.97 µM (inactive) | 11.3 µM (inactive) | –
Oc1c(N2CCCCC2)cc(-c2cc(N3CCCCC3)c(O)c3ccccc23)c2ccccc12 | 20.4 µM (inactive) | 27.6 µM (inactive) | 26 µM (inactive) | 25.1 µM (inactive) | 16.7 µM (inactive) | 25.2 µM (inactive) | 19 µM (inactive) | 0.368 µM (active) | 27.7 µM (inactive) | 23 µM (inactive) | 14.9 µM (inactive) | 24.9 µM (inactive) | – | > 100 µM (inactive) | > 100 µM (inactive) | – | 23.3 µM (inactive) | 21.1 µM (inactive) | 17.1 µM (inactive) | –
CC(Cc1ccccc1)N(C)Cc1nc(C2CCC([N+](=O)[O-])O2)no1 (stereo not given) | 19 µM (inactive) | 2.51 µM (inactive) | 28.1 µM (inactive) | 3.19 µM (inactive) | 6 µM (inactive) | – | 7.29 µM (inactive) | 16.7 µM (inactive) | 2.46 µM (inactive) | 2.77 µM (inactive) | 7.31 µM (inactive) | 5.18 µM (inactive) | 10.3 µM (inactive) | 7.29 µM (inactive) | 16.9 µM (inactive) | – | – | 5.96 µM (inactive) | 8.47 µM (inactive) | –
CNC(=S)Nc1ccc(OC)c2ccccc12 | – | > 10 µM (inactive) | > 10 µM (inactive) | > 10 µM (inactive) | > 10 µM (inactive) | – | > 10 µM (inactive) | > 10 µM (inactive) | > 10 µM (inactive) | > 10 µM (inactive) | > 10 µM (inactive) | > 10 µM (inactive) | 4.43 µM (inactive) | – | – | – | 2.88 µM (inactive) | > 10 µM (inactive) | > 10 µM (inactive) | > 10 µM (inactive)
Cc1cc(NS(=O)(=O)c2ccc(Nc3c4ccccc4nc4c(C(=O)N5CCN(CCO)CC5)cccc34)cc2)no1 | 22.3 µM (inactive) | > 100 µM (inactive) | > 100 µM (inactive) | 39.5 µM (inactive) | > 100 µM (inactive) | > 100 µM (inactive) | > 100 µM (inactive) | 66.5 µM (inactive) | – | > 100 µM (inactive) | > 100 µM (inactive) | > 100 µM (inactive) | > 100 µM (inactive) | > 100 µM (inactive) | > 100 µM (inactive) | > 100 µM (inactive) | > 100 µM (inactive) | > 100 µM (inactive) | > 100 µM (inactive) | 79.4 µM (inactive)
CCOC(=O)CNc1nc(=O)c2c(=O)oc(Cl)cc2o1 | – | 18.4 µM (inactive) | 14.7 µM (inactive) | 10.5 µM (inactive) | 17.9 µM (inactive) | 17.2 µM (inactive) | 12.1 µM (inactive) | – | 19.3 µM (inactive) | 10.7 µM (inactive) | 17.5 µM (inactive) | 19.1 µM (inactive) | 11 µM (inactive) | 12.8 µM (inactive) | > 100 µM (inactive) | 17.5 µM (inactive) | 12.9 µM (inactive) | 18.2 µM (inactive) | 17.6 µM (inactive) | 2.7 µM (inactive)
O=C1CCCC/C1=C\c1ccc(Br)cc1 | – | 17.6 µM (inactive) | 18.5 µM (inactive) | 39.6 µM (inactive) | 12.4 µM (inactive) | 22.6 µM (inactive) | 17.3 µM (inactive) | 4.2 µM (inactive) | 24.5 µM (inactive) | – | 26.8 µM (inactive) | 16.2 µM (inactive) | 16 µM (inactive) | 16.1 µM (inactive) | – | – | 20.7 µM (inactive) | 6.61 µM (inactive) | 22 µM (inactive) | 14.8 µM (inactive)
CO[C@]12C[C@@H](CNC(=O)c3cc(Br)c[nH]3)O[C@H]1NC(=O)N2 | – | > 100 µM (inactive) | > 100 µM (inactive) | – | > 100 µM (inactive) | > 100 µM (inactive) | > 100 µM (inactive) | – | > 100 µM (inactive) | > 100 µM (inactive) | > 100 µM (inactive) | > 100 µM (inactive) | > 100 µM (inactive) | > 100 µM (inactive) | > 100 µM (inactive) | > 100 µM (inactive) | > 100 µM (inactive) | > 100 µM (inactive) | > 100 µM (inactive) | > 100 µM (inactive)
CCN(CC)c1c(C(C)(C)C)c(=O)n2ccsc2c1OC(C)=O | 16.9 µM (inactive) | 18.2 µM (inactive) | 15.2 µM (inactive) | 17.4 µM (inactive) | 17.3 µM (inactive) | 17.1 µM (inactive) | 13.6 µM (inactive) | – | 22.9 µM (inactive) | 14.8 µM (inactive) | 16.5 µM (inactive) | 16.1 µM (inactive) | 15 µM (inactive) | 17.9 µM (inactive) | 15.4 µM (inactive) | 19.2 µM (inactive) | 17.1 µM (inactive) | 16.9 µM (inactive) | 15.2 µM (inactive) | 13.4 µM (inactive)
COC(=O)[C@H](Cc1c[nH]c2ccccc12)NC(=O)OCC1OC(n2cc(C)c(=O)[nH]c2=O)CC1N=[N+]=[N-] (stereo not given in full) | > 100 µM (inactive) | > 100 µM (inactive) | > 100 µM (inactive) | 98.6 µM (inactive) | > 100 µM (inactive) | > 100 µM (inactive) | > 100 µM (inactive) | – | 46.3 µM (inactive) | > 100 µM (inactive) | 62.5 µM (inactive) | 76 µM (inactive) | 84.5 µM (inactive) | > 100 µM (inactive) | > 100 µM (inactive) | – | > 100 µM (inactive) | 61.5 µM (inactive) | > 100 µM (inactive) | > 100 µM (inactive)
N=C(N)c1ccc(/N=N/c2c(O)ccc3cc(O)ccc23)cc1 | > 100 µM (inactive) | – | > 100 µM (inactive) | – | > 100 µM (inactive) | > 100 µM (inactive) | > 100 µM (inactive) | 24.7 µM (inactive) | > 100 µM (inactive) | > 100 µM (inactive) | > 100 µM (inactive) | – | – | > 100 µM (inactive) | > 100 µM (inactive) | – | > 100 µM (inactive) | > 100 µM (inactive) | > 100 µM (inactive) | > 100 µM (inactive)
CC(NC(=O)C(NC(=O)OCc1ccccc1)C(C)C)C(=O)NCC(=O)O (stereo not drawn) (Cbz-Val-Ala-Gly-OH; configuration not given here) | > 100 µM (inactive) | > 100 µM (inactive) | > 100 µM (inactive) | – | > 100 µM (inactive) | > 100 µM (inactive) | > 100 µM (inactive) | > 100 µM (inactive) | > 100 µM (inactive) | > 100 µM (inactive) | > 100 µM (inactive) | > 100 µM (inactive) | – | > 100 µM (inactive) | > 100 µM (inactive) | – | > 100 µM (inactive) | > 100 µM (inactive) | – | > 100 µM (inactive)
